The results in this text go back to ChEMBL document CHEMBL5214955, “Design, synthesis and activity evaluation of Hedgehog inhibitor Itraconazole derivatives in A549 cells” (Bioorg Med Chem Lett, 2022).

SMILES strings stand for the structures. Active and inactive are the calls of the source. No cut-off for these calls is given here.

Data set [1] relates to A549. Kind of data set: Antiproliferative activity against human A549 cells assessed as inhibition of cell proliferation incubated for 48 hrs by MTT assay. To be noted: A549, 48 h. It counts as functional, cell-based.
The subject of data set [2] is HepG2. Kind of data set: Antiproliferative activity against human HepG2 cells assessed as inhibition of cell proliferation incubated for 48 hrs by MTT assay. To be noted: HepG2, 48 h. It counts as functional, cell-based.
The nature of data set [3]: Cytotoxicity against human L02 cells assessed as inhibition of cell proliferation incubated for 48 hrs by MTT assay. It is filed as toxicity, cell-based. A general note: Formazan colour is commonly taken as a measure of viable cells.
Data set [4] is described as follows: Inhibition of hedgehog signalling pathway in human A549 cells assessed as reduction in Gli gene expression incubated for 24 hrs by qPCR analysis. It is filed as cell-based. To be noted: A549, 24 h. (In general: Quantitative PCR measures a nucleic acid by following its amplification.)
Data set [5] concerns A549. As to the kind of experiment: Induction of apoptosis in human A549 cells assessed as necrotic cells at 30 uM incubated for 24 hrs by Annexin V-FITC/PI staining based flow cytometric analysis (reference value: 0.084%). It counts as functional.
Data set [6] concerns A549. Kind of data set: Induction of apoptosis in human A549 cells assessed as early apoptotic cells at 30 uM incubated for 24 hrs by Annexin V-FITC/PI staining based flow cytometric analysis (reference value: 0.316%). It counts as functional.
The subject of data set [7] is A549. Kind of data set: Induction of apoptosis in human A549 cells assessed as late apoptotic cells at 30 uM incubated for 24 hrs by Annexin V-FITC/PI staining based flow cytometric analysis (reference value: 1.40%). It is filed as functional.
Data set [8] has as its system A549. As to the kind of experiment: Induction of apoptosis in human A549 cells assessed as viable cells at 30 uM incubated for 24 hrs by Annexin V-FITC/PI staining based flow cytometric analysis (reference value: 98.2%). It counts as functional. To be noted: read-out: Activity. For orientation: In flow cytometry, cells or beads pass a laser one at a time.
For data set [9], the system named is A549. As to the kind of experiment: Antiproliferative activity against human A549 cells assessed as inhibition of clone formation at 10 uM incubated for 1 day followed by culture in new medium for 7 days by crystal violet staining based assay relative to control. Details: scale not given: the % may be the effect or the level left. It is filed as functional. To be noted: time 8 day.

Data set [10] deals with A549. Kind of data set: Induction of intracellular reactive oxygen species production in human A549 cells assessed as increase in number ROS positive cells at 30 uM and measured after 4 hrs by H2DCFH-DA staining based flow cytometric analysis. It is filed as functional, cell-based.
Data set [11] deals with A549. Kind of data set: Induction of intracellular reactive oxygen species production in human A549 cells assessed as increase in number ROS positive cells at 30 uM and measured after 24 hrs by H2DCFH-DA staining based flow cytometric analysis (Rvb=1.10%). It counts as functional.
Data set [12] has as its system A549. Kind of data set: Induction of intracellular reactive oxygen species production in human A549 cells assessed as increase in number ROS positive cells at 30 uM and measured after 4 hrs by DCFH-DA probe based confocal microscopy. It counts as functional, cell-based.
Data set [13] relates to A549. Kind of data set: Induction of mitochondrial membrane potential loss in human A549 cells assessed as assessed as proportion of MMP decreased cells at 30 uM and measured after 4 hrs by JC-1 staining based flow cytometry assay. It is filed as functional, cell-based.
For data set [14], the system named is A549. Kind of data set: Induction of mitochondrial membrane potential loss in human A549 cells assessed as assessed as proportion of MMP decreased cells at 30 uM and measured after 24 hrs by JC-1 staining based flow cytometry assay (reference value: 7.50%). It counts as functional. Also noted: scale not given: the % may be the effect or the level left.

One may read the IC50 as the concentration that gives 50% inhibition.

`CCCCC(=O)Nc1ccc(N2CCN(c3ccc(OC[C@@H]4CO[C@@](Cn5cncn5)(c5ccc(Cl)cc5Cl)O4)cc3)CC2)cc1`: the figures for the IC50 in data set [1] and in data set [2] were 5.34 µM and 14.1 µM, respectively. In addition, the half-inhibitory concentration (IC50) at 48 h in data set [3] was more than 50 µM.
For the compound `CCC(=O)Nc1ccc(N2CCN(c3ccc(OC[C@@H]4CO[C@@](Cn5cncn5)(c5ccc(Cl)cc5Cl)O4)cc3)CC2)cc1`, the IC50 is 0.873 µM in data set [4], 2.55 µM in data set [1] and 5.46 µM in [2]. The IC50 at 48 h in data set [3] was more than 50 µM.
On to `O=C(Nc1ccc(N2CCN(c3ccc(OC[C@@H]4CO[C@@](Cn5cncn5)(c5ccc(Cl)cc5Cl)O4)cc3)CC2)cc1)c1ccco1`, for which the IC50 stood at 10.5 µM in data set [1] and 22.3 µM in data set [2]. Further, the IC50 at 48 h in data set [3] was more than 50 µM.
Take `O=C(CCCc1ccccc1)Nc1ccc(N2CCN(c3ccc(OC[C@@H]4CO[C@@](Cn5cncn5)(c5ccc(Cl)cc5Cl)O4)cc3)CC2)cc1`: the IC50 in [4] is 0.782 µM; in data set [1] it was 3.78 µM; in data set [2], 10.8 µM. Further, in data set [3], the IC50 at 48 h is more than 50 µM.
On to `O=C(Nc1ccc(N2CCN(c3ccc(OC[C@@H]4CO[C@@](Cn5cncn5)(c5ccc(Cl)cc5Cl)O4)cc3)CC2)cc1)c1cccs1`, for which the IC50 is 4.33 µM in [1] and 9.77 µM in data set [2]. The IC50 at 48 h in [3] was more than 50 µM.
The corresponding values for `O=C(CC1CCOCC1)Nc1ccc(N2CCN(c3ccc(OC[C@@H]4CO[C@@](Cn5cncn5)(c5ccc(Cl)cc5Cl)O4)cc3)CC2)cc1` are 10 µM, 21.1 µM and more than 50 µM.
`O=C(Cc1cccs1)Nc1ccc(N2CCN(c3ccc(OC[C@@H]4CO[C@@](Cn5cncn5)(c5ccc(Cl)cc5Cl)O4)cc3)CC2)cc1`: the IC50 amounted to 0.251 µM in data set [4], 2.13 µM in data set [1] and 5.05 µM in data set [2]. Besides, the IC50 at 48 h in data set [3] was more than 50 µM. For the same compound, the Activity in data set [5] is recorded as 1.89%; in data set [6], 7.54%; in data set [7], 46.1%; in data set [9], 28%; in data set [11], 53%; in data set [14] it was 44.9%. Further, the viability at 30 µM in data set [8] turned out to be 44.5%. Also, the outcome in data set [10], in data set [12] and in [13] was Active.
Consider `O=C(CCCCc1ccccc1)Nc1ccc(N2CCN(c3ccc(OC[C@@H]4CO[C@@](Cn5cncn5)(c5ccc(Cl)cc5Cl)O4)cc3)CC2)cc1`, for which the IC50 in [4] was 0.457 µM; in data set [1], 2.61 µM; in data set [2] it was 7.01 µM. Besides, the IC50 at 48 h in [3] is more than 50 µM.
Take `O=C(Nc1ccc(N2CCN(c3ccc(OC[C@@H]4CO[C@@](Cn5cncn5)(c5ccc(Cl)cc5Cl)O4)cc3)CC2)cc1)c1ccc(F)c(F)c1`: the results for the IC50 in data set [4], in data set [1] and in [2] were 0.844 µM, 8.69 µM and 19.9 µM, respectively. In addition, in data set [3], the IC50 at 48 h is more than 50 µM.
`O=C(Nc1ccc(N2CCN(c3ccc(OC[C@@H]4CO[C@@](Cn5cncn5)(c5ccc(Cl)cc5Cl)O4)cc3)CC2)cc1)c1cccc(F)c1`: the IC50 in data set [1] came out at 6.64 µM; in data set [2], 10.8 µM. In addition, the IC50 at 48 h in [3] was more than 50 µM.
The matching figures for `Cc1ccc(C(=O)Nc2ccc(N3CCN(c4ccc(OC[C@@H]5CO[C@@](Cn6cncn6)(c6ccc(Cl)cc6Cl)O5)cc4)CC3)cc2)o1`: 4.75 µM, 8.7 µM and more than 50 µM.
Regarding `CCCC(=O)Nc1ccc(N2CCN(c3ccc(OC[C@@H]4CO[C@@](Cn5cncn5)(c5ccc(Cl)cc5Cl)O4)cc3)CC2)cc1`, the IC50 stood at 2.99 µM in [1] and 9.93 µM in [2]. The IC50 at 48 h in data set [3] is more than 50 µM.
In the case of `CCC(C)n1ncn(-c2ccc(N3CCN(c4ccc(OCC5COC(Cn6cncn6)(c6ccc(Cl)cc6Cl)O5)cc4)CC3)cc2)c1=O` (stereo unspecified) [ITRACONAZOLE], the IC50 in [4] was determined as 0.125 µM; in data set [1] it was 3 µM; in data set [2], 7.87 µM. Also, the IC50 at 48 h in data set [3] was more than 50 µM. Besides, the Activity in [5] was determined as 3.84%; in data set [6] it was 7.65%; in data set [7] it was 34.6%; in [9], 34%; in [11] it was 38.3%; in data set [14], 36.3%. Besides, the viability at 30 µM in data set [8] was found to be 53.9%.
For the compound `O=C(CCc1ccccc1)Nc1ccc(N2CCN(c3ccc(OC[C@@H]4CO[C@@](Cn5cncn5)(c5ccc(Cl)cc5Cl)O4)cc3)CC2)cc1`, the IC50 in [4] came out at 0.089 µM; in data set [1] it was 2.06 µM; in data set [2], 5.34 µM. Moreover, in data set [3], the IC50 at 48 h was more than 50 µM. The Activity in data set [5] is on record as 1.07%; in data set [6] it was 12.4%; in data set [7], 51.8%; in data set [9], 22%; in data set [11], 62.9%; in [14], 55.4%. Also, in data set [8], the viability at 30 µM was 34.7%. Besides, the outcome in data set [10], in data set [12] and in data set [13] was Active.
